Patent US20140357512A1, “HISTONE DEACETYLASE (HDAC) BIOMARKERS IN MULTIPLE MYELOMA” (priority 2013, published 2014)

System: human myeloma cell line MM.1S
Assay: SILAC acetylated-lysine peptide profiling, HDAC inhibitor vs DMSO (light/heavy ratio)
Assay type: cell-based
Description: An embodiment of the invention comprises utilizing the SILAC method in order to quantitate changes in protein expression between two or more populations of cells. The SILAC method is a technique based on mass spectrometry that detects differences in protein abundance among samples using non-radioactive isotopic labeling. The SILAC method is known in the art, and described in detail in Ong et al., “Stable Isotope Labeling by Amino Acids in Cell Culture, SILAC, as a Simple and Accurate Approach to Expression Proteomics”, Molecular & Cellular Proteomics, vol. 1, pp. 376-386 (2002), which is incorporated herein by reference in its entirety.
Briefly, the SILAC method involves growing two populations of cells in cell culture. The first population of cells is grown in growth media containing normal amino acids (“normal media”). The second population of cells is grown in media lacking a standard essential amino acid (such as lysine), but is then supplemented with a non-radioactive, isotopically labeled form of that essential amino acid (such as lysine labeled with ^13C atoms, rather than normal ^12C atoms), which is called “heavy media”. When the two populations of cells are each growing in the medium, they incorporate the amino acids into all of their proteins. The growth of cells maintained in the heavy media is no different from that in normal media. All peptides containing the heavy amino acids are heavier than their normal counterparts. The cells from each of the two populations of cells are lysed. The lysates from each of the two cell populations are then combined. The combined cell lysates are then analyzed by mass spectrometry. Pairs of chemically identical peptides of different stable isotope composition can be differentiated in a mass spectrometer due to their difference in mass. The ratio of peak intensities in the mass spectrum for such peptide pairs reflects the abundance ratio for the two proteins.
This example describes SILAC studies that were performed to compare the effects of three different HDAC inhibitors (Compound A, Compound B, and tubastatin A) to a control on a human multiple myeloma cell line. The HDAC inhibitors were also compared amongst themselves to determine differences in their effects.
A human myeloma cell line MM.1S was grown using either ^12C (light) or ^13C (heavy) lysine containing culture medium. The “heavy” cells were treated with DMSO as the control, and the “light” cells were treated with a single HDAC inhibitor at 37° C. for 6 hours. The heavy and light cells were lysed, and the lysates were mixed in 1:1 ratio and digested with the protease trypsin. The acetylated lysine containing peptides (due to the action of the HDAC inhibitor) in the digested peptide pool were captured by a non-specific anti-acetylated lysine antibody cocktail (the antibodies identify both light and heavy acetylated peptides), and subjected to mass spectrometry analysis in order to identify thousands of individual peptides.
Thousands of peptides were identified in pairs (^12C and ^13C) due to their known mass differences. The amino acid sequence and quantitative ratio (Light/Heavy) of a given peptide in two differentially treated cell lysates were then determined and annotated with their possible protein (gene) sources.
As stated above, three HDAC inhibitors (Compound A, Compound B, and Tubastatin A) were used. Thus, the SILAC method was performed three times, with a different HDAC inhibitor compared to a control each time. Accordingly, there are three pairs of quantitative data in the table below, i.e., Compound A:DMSO, Compound B:DMSO, and Tubastatin A:DMSO. A cut-off of 1.30 fold of change (increase or decrease) was then used to determine “changed” or “+” in the table, and any peptides with a fold of change less than 1.3 fold were determined to be “unchanged” or “0” in the table. Those peptides that were not identified were marked as “NA” in the table. […]

O=C(NO)c1cnc(NC2(c3cccc(F)c3)CCCCC2)nc1 [Compound B, 2-((1-(3-fluorophenyl)cyclohexyl)amino)-N-hydroxypyrimidine-5-carboxamide] was tested. Which “L/H ratio of acetylated peptide LDHLAEK(ac)FR (SEQ ID NO: 20)” value (ACTN1 [398], log 2 scale, drug vs DMSO) did it give?
Its value is 0.00.

And the “L/H ratio of acetylated peptide […](ac)FVYQAK (SEQ ID NO: 126)” value (ADAR [757], log 2 scale, drug vs DMSO)?
Its value is 0.00.

What about the “light to heavy ratio (L/H ratio) of acetylated peptide, log 2 scale” value (“light to heavy ratio (L/H ratio) … log 2 scale” below) (ADINTK(ac)WAATR (SEQ ID NO: 202), Ribosomal protein L14 variant [85], RPL14) of the same compound?
The value was 0.00.

And the “light to heavy ratio (L/H ratio) … log 2 scale” value (ADK(ac)DYHFK (SEQ ID NO: 191), Isoform 2 of Nucleophosmin [27], NPM1)?
The value was 0.00.

And the “light to heavy ratio (L/H ratio) of acetylated peptide TTLLYK(ac)LK (SEQ ID NO: 624)” value (ADP-ribosylation factor-like protein 11 [31], gene ARL11, inhibitor:DMSO)?
Its value is 0.00 log 2.

And the “light to heavy ratio (L/H ratio) of acetylated peptide IFK(ac)SDGLR (SEQ ID NO: 280)” value (ADP/ATP translocase 1 [166], SLC25A4, drug:DMSO)?
The value was 0.00 log 2.

And the “light to heavy ratio (L/H ratio) of acetylated peptide ITK(ac)SDGIR (SEQ ID NO: 587)” value (ADP/ATP translocase 3 [166], gene SLC25A6, inhibitor:DMSO)?
Its value is 0.00 log 2.

What about the “L/H ratio of acetylated peptide” value (AELSK(ac)LVIVAK (SEQ ID NO: 370), UPF0556 protein C19orf10 [161], C19orf10) of the same compound?
Its value is 1.00 log 2.

And the “L/H ratio of acetylated peptide HLSDSINQK(ac)HFEQAIER” value (AFG3L2 [543], log 2 scale, drug vs DMSO)?
Its value is 0.00.

And the “L/H ratio of acetylated peptide” value (AFQLK(ac)SR (SEQ ID NO: 439), ribonucleoprotein PTB-binding 1 [579], RAVER1)?
Its value is −0.89 log 2.

And the “light to heavy ratio (L/H ratio) … log 2 scale” value (AFYK(ac)SFSK (SEQ ID NO: 170), Endoplasmin [360], HSP90B1)?
The value was 0.00.

What about the “L/H ratio of acetylated peptide” value (AK(ac)FESMAEEK (SEQ ID NO: 402), Hematopoietic lineage cell-specific protein [241], HCLS1) of the same compound?
Its value is 1.00 log 2.

And the “light to heavy ratio (L/H ratio) … log 2 scale” value (ALDLNLK(ac)HQILPK (SEQ ID NO: 248), Cytochrome b-c1 complex subunit 7 [72], UQCRB)?
The value was 0.00.

What about the “L/H ratio of acetylated peptide LK(ac)[…] (SEQ ID NO: 21)” value (ANP32B [101], log 2 scale, drug vs DMSO) of the same compound?
The value was 0.00.

And the “L/H ratio of acetylated peptide […](ac)SLYGK (SEQ ID NO: 22)” value (ANXA6 [63], log 2 scale, drug vs DMSO)?
The value was 0.00.

What about the “L/H ratio of acetylated peptide LGTDESK(ac)FNAVLCSR (SEQ ID NO: 7)” value (ANXA11 [478], log 2 scale, drug vs DMSO) of the same compound?
The value was 0.50.

And the “L/H ratio of acetylated peptide MYFDK(ac)[…] (SEQ ID NO: 23)” value (ATAD3A [491], log 2 scale, drug vs DMSO)?
Its value is 0.00.

What about the “L/H ratio of acetylated peptide” value (ATAEEMTK(ac)YHSDEYIK (SEQ ID NO: 403), Histone deacetylase 2[161], HDAC2) of the same compound?
Its value is 0.78 log 2.

And the “L/H ratio of acetylated peptide IVEYEK(ac)EMEK (SEQ ID NO: 24)” value (ATP5H [117], log 2 scale, drug vs DMSO)?
Its value is 0.00.

What about the “L/H ratio of acetylated peptide YYNK(ac)YINVK (SEQ ID NO: 12)” value (ATP5J2 [54], log 2 scale, drug vs DMSO) of the same compound?
The value was −0.43.

What about the “light to heavy ratio (L/H ratio) of acetylated peptide QNK(ac)LEQVEK (SEQ ID NO: 271)” value (ATP synthase subunit O mitochondrial [54], ATP50, drug:DMSO) of the same compound?
The value was 0.00 log 2.

What about the “light to heavy ratio (L/H ratio) of acetylated peptide ISEQSDAK(ac)LK (SEQ ID NO: 600)” value (ATP synthase subunit alpha mitochondrial [539], gene ATP5A1, inhibitor:DMSO) of the same compound?
The value was 0.00 log 2.

What about the “light to heavy ratio (L/H ratio) of acetylated peptide […](ac)ETIAK (SEQ ID NO: 307)” value (ATP synthase subunit b mitochondrial [233], ATP5F1, drug:DMSO) of the same compound?
The value was 0.00 log 2.

What about the “light to heavy ratio (L/H ratio) of acetylated peptide […](ac)QLTVK (SEQ ID NO: 279)” value (ATP synthase subunit g mitochondrial [66], ATP5L, drug:DMSO) of the same compound?
Its value is 0.00 log 2.

What about the “light to heavy ratio (L/H ratio) of acetylated peptide ELDPIQK(ac)LFVDK (SEQ ID NO: 365)” value (ATP synthase-coupling factor 6 mitochondrial [41], ATP5J, drug:DMSO) of the same compound?
The value was −0.48 log 2.

And the “light to heavy ratio (L/H ratio) of acetylated peptide FEDPK(ac)FEVIEKPQA (SEQ ID NO: 325)” value (ATP synthase-coupling factor 6 mitochondrial [99], ATP5J, drug:DMSO)?
Its value is −0.50 log 2.

What about the “light to heavy ratio (L/H ratio) … log 2 scale” value (AVEEK(ac)[…] (SEQ ID NO: 172), 78 kDa glucose-regulated protein [601], HSPA5) of the same compound?
Its value is 0.00.

What about the “L/H ratio of acetylated peptide” value (AVSMDNSNK(ac)YTK (SEQ ID NO: 396), Forkhead box protein O3 [259], FOXO3) of the same compound?
Its value is 0.45 log 2.

What about the “L/H ratio of acetylated peptide” value (AYHLQK(ac)STCGK (SEQ ID NO: 443), 60S ribosomal protein L37 [31], RPL37) of the same compound?
Its value is 0.42 log 2.

What about the “light to heavy ratio (L/H ratio) of acetylated peptide NAYVWTLK(ac)GR (SEQ ID NO: 361)” value (Actin-related protein 2/3 complex subunit 1B [82], ARPC1B, ARPC1A, drug:DMSO) of the same compound?
Its value is −1.00 log 2.

What about the “light to heavy ratio (L/H ratio) of acetylated peptide VFDPQNDK(ac)[…] (SEQ ID NO: 362)” value (Actin-related protein 2/3 complex subunit 3 [155], ARPC3, drug:DMSO) of the same compound?
Its value is 0.45 log 2.

What about the “light to heavy ratio (L/H ratio) of acetylated peptide AFAK(ac)ELFLGK (SEQ ID NO: 627)” value (Acyl-CoA dehydrogenase family member 9 mitochondrial [41], gene ACAD9, inhibitor:DMSO) of the same compound?
Its value is 0.00 log 2.
